Assay results from patent publication US12427192B2, “Water soluble adjuvant and composition containing same” (Sumitomo Pharma Co., Ltd., priority 2019, dated 2025).

Tests used:
[1] = test system: HLA-A*02:01 transgenic mouse; assay: Test 13: in vivo adjuvant activity, cocktail vaccine h (emulsified composition 3), IFNγ ELISPOT; details: added to cocktail vaccine h (emulsified composition 3); 0.04 nmol per body, twice; FIG. 14
Protocol: (§1) Evaluation of In Vivo Adjuvant Activity in HLA-A*02:01 Transgenic Mouse
The in vivo adjuvant activity of the compound of Example 1 was evaluated in the following procedure. To a cocktail vaccine (emulsified composition 3) comprising Compound of formula 4 prepared in Reference example 8 and Peptide SEQ ID No. 3 prepared in Reference example 3 (hereinafter, referred to as “cocktail vaccine h”) was added the compound prepared in Example 1 to prepare a vaccine. The vaccine was administered to a HLA-A*02:01 transgenic mouse, and the adjuvant activity of the vaccine was evaluated by the method of testing antigen-specific CTL induction.
For example, the above emulsified composition 3 was prepared as follows. 95.8% (w/w) of isopropyl myristate, 3% (w/w) of PEG-30 dipolyhydroxy stearate, and 1.2% (w/w) of polysorbate 80 were mixed to prepare an oil-phase mixture. The amount of the preparation was adjusted as appropriate. Compound of formula 4 and Peptide SEQ ID No. 3 were mixed with pH 2.5 buffer (10 mM tartaric acid, 10% trehalose) to adjust each concentration to 3 mg/mL and 2.25 mg/mL, respectively. The prepared peptide dilution was mixed with an equal volume of the oil-phase mixture to give an emulsified product, cocktail vaccine h. […] Then, after removal of the supernatant from the wells, stained spots on the ELISPOT plate were counted.

[2] = test system: HLA-A*02:01 transgenic mouse; assay: Test 9: in vivo adjuvant activity, cocktail vaccine b, IFNγ ELISPOT; details: added to cocktail vaccine b; Peptide SEQ ID No. 1 or SEQ ID No. 4; 0.4 nmol per body, twice; FIG. 6 and 7
Protocol: as §1
The in vivo adjuvant activity of the compounds prepared in Examples 8, 9, and 10 and the compound prepared in Reference example 12 was evaluated in the following procedure. To cocktail vaccine b comprising Compound of formula 4 prepared in Reference example 8 and Peptide SEQ ID No. 3 prepared in Reference example 3 with Montanide ISA51 VG was added the compound prepared in Example 8, 9, or 10, or the compound prepared in Reference example 12 to prepare each vaccine. The vaccine was administered to a HLA-A*02:01 transgenic mouse, and the adjuvant activity of each vaccine was evaluated by the method of testing antigen-specific CTL induction.
Specifically, Compound of formula 4 and Peptide SEQ ID No. 3 were dissolved in DMSO, and then diluted with water for injection to concentrations of Compound of formula 4 of 3 mg/mL and Peptide SEQ ID No. 3 of 2.25 mg/mL. The diluted peptide solution was mixed and emulsified with an equal volume of Montanide ISA 51 VG to prepare cocktail vaccine b. Cocktail vaccine b was injected to mice intradermally at the tail base area in an amount for administering 300 μg of Compound of formula 4 per body and 225 μg of Peptide SEQ ID No. 3 per body. Or, in the step of preparing cocktail vaccine b, the compound prepared in Example 8, 9, or 10, or the compound prepared in Reference example 12 was added to the diluted peptide solution to prepare a vaccine, and the prepared vaccine was injected to mice intradermally at the tail base area in an amount for administering 300 μg of Compound of formula 4 per body, 225 μg of Peptide SEQ ID No. 3 per body, and 0.4 nmol of the compound prepared in Example 8, 9, or 10, or the compound prepared in Reference example 12 per body. The administrations were done twice, which had one week interval. One week after the final administration, the mice were sacrificed with CO2 gas. Splenocytes were harvested from spleens removed from the mice. Like Test 4, Peptide (SEQ ID No. 1 or SEQ ID No. 4) was added to the splenocyte-containing ELISPOT plate at a final concentration of 10 μg/ml, and the plate was incubated overnight at 37° C. under an atmosphere of 5% CO2 to re-stimulate the peptide in vitro. Then, after removal of the supernatant from the wells, stained spots on the ELISPOT plate were counted.

| SMILES | CTL counts responsive to Peptide SEQ ID No. 1 compared with adding no compound [1] | CTL counts responsive to the peptide compared with adding no compound [2] |
| --- | --- | --- |
| CCCCCNc1nc(N)nc(C)c1Cc1ccc(CN(C)CCOCCOCCOCCOCCO)cc1OC [Example 1, 1-(4-{[2-amino-4-methyl-6-(pentylamino)pyrimidin-5-yl]methyl}-3-methoxyphenyl)-2-methyl-5,8,11,14-tetraoxa-2-azahexadecan-16-ol·trifluoroacetate] | more | – |
| CCCCCNc1nc(N)nc(C)c1Cc1ccc(CNC)cc1OC [Reference example 12, 5-({2-methoxy-4-[(methylamino)methyl]phenyl}methyl)-6-methyl-N^4-pentylpyrimidine-2,4-diamine, reference compound] | – | more |
